Results on four molecules are retold here after patent US9359376B2, “Substituted methylformyl reagents and method of using same to modify physicochemical and/or pharmacokinetic properties of compounds” (priority 2011, dated 2016).

The nature of the data set: in vivo. The protocol: […] Blood was collected by serial bleeding at 0.16 h, 0.5 h, 1 h, 2 h, 4 h, 6 h, 8 h and 24 h in heparinized tubes. Blood samples were centrifuged at 10,000 rpm for 10 min. at 4° C. to obtain the plasma, which were aspirated into separate labeled tubes and stored at −80° C. 400 ng/ml of Verapmil in acetonitrile was used as the drug extraction solvent for extracting drug from plasma. Extraction solvent was added to plasma was vortexed and shaken on shaker for 10 minutes, centrifuged at 10000 rpm for 10 minutes at 4° C. Supernatant was kept for analysis.
Acetonitrile and plasma calibration curves were generated and percentage of drug recovery from plasma determined. Quantitative analysis was done by liquid chromatography tandem mass spectrometry using multiple reaction monitoring (API3000 LC-MS/MS). Cmax, Tmax, AUC and t1/2 were calculated using Graph Pad PRISM version 5.04.

Consider `CCc1c2c(nc3ccc(OCOC(=O)c4cccnc4)cc13)-c1cc3c(c(=O)n1C2)COC(=O)[C@]3(O)CC` [Compound 305, (S)-((4,11-diethyl-4-hydroxy-3,14-dioxo-3,4,12,14-tetrahydro-1H-pyrano[3′,4′:6,7]indolizino[1,2-b]quinolin-9-yl)oxy)methyl nicotinate], for which the “PK Value (AUC)” value (dosage 10.00 mpk, vehicle PEG400) is “BDL”.
Take `CCc1c2c(nc3ccc(OCOC(=O)c4ccc[n+](COC(=O)NC(C)C)c4)cc13)-c1cc3c(c(=O)n1C2)COC(=O)[C@]3(O)CC.[I-]` [Compound 306, (S)-3-((((4,11-diethyl-4-hydroxy-3,14-dioxo-3,4,12,14-tetrahydro-1H-pyrano[3′,4′:6,7]indolizino[1,2-b]quinolin-9-yl)oxy)methoxy)carbonyl)-1-(((isopropylcarbamoyl)oxy)methyl)pyridin-1-ium iodide]: the “PK Value (AUC)” value (dosage 3.00 mpk, vehicle PEG400) is “BDL”.
As to `CC(=O)O[C@H]1C(=O)[C@@]2(C)[C@H]([C@H](OC(=O)c3ccccc3)[C@@]3(O)CC1=C(C)[C@@H](OC(=O)[C@H](O)[C@@H](NC(=O)c1ccccc1)c1ccccc1)C3)[C@]1(OC(C)=O)CO[C@@H]1C[C@@H]2O` [Compound 4114, (2α,4α,5β,7β,10β,13α)-4,10-bis(acetyloxy)-13-{[(2R,3S)-3-(benzoylamino)-2-hydroxy-3-phenylpropanoyl]oxy}-1,7-dihydroxy-9-oxo-5,20-epoxytax-11-en-2-yl benzoate], the AUC (female, Sprague Dawley, rat, plasma, po, 10 mg/kg) was found to be 186 nM·h.
For `CCc1c2c(nc3ccc(O)cc13)-c1cc3c(c(=O)n1C2)COC(=O)[C@]3(O)CC` [Compound 4150, (S)-4,11-diethyl-4,9-dihydroxy-1H-pyrano[3′,4′:6,7]indolizino[1,2-b]quinoline-3,14(4H,12H)-dione], where the note is “rat, in vivo”, the “PK Value (AUC)” value is “BDL”.

A word on the AUC: it is concentration integrated over time. Higher therefore signals high exposure.
